Experimental data published in publication PMC10892451, “Evaluation of the Antibacterial Activity of New Dermaseptin Derivatives against Acinetobacter baumannii” (Pharmaceuticals, 2024).
In brackets after ≈: the same amount, converted by molar mass. Ends that are not written are not given here.

Tests used:
[1] = test system: A. baumannii clinical specimen MDR; assay: microbe, parasite or virus in culture; details: for A. baumannii MIC: broth microdilution, Mueller-Hinton broth, 5 × 10^5 CFU/mL, 24 h at 37 °C, clinical MDR isolate, triplicate
Protocol: (§1) The bacterial strain used in the present study came from the stock culture of the microbiology laboratory of the Federal University of the Delta of Parnaíba—UFDPar, Parnaíba—PI, Brazil. The strain used in the tests was A. baumannii clinical specimen MDR (multidrug resistant), which developed resistance to major antibiotic classes and carbapenem-resistant isolates. Before performing all experiments, the selected strains were cultured in Petri dishes containing Mueller-Hinton agar (Difco™, Piaui, Brazil). Then, under aerobic conditions, they were incubated in a bacteriological oven for 24 h at 35 ± 2 °C. After incubation, the colonies that grew alone were collected with a disposable bacteriological loop and suspended in a sterile saline solution (0.85% NaCl (w/v), Parnaíba—UFDPar, Piaui, Brazil) in order to reach an absorbance pattern between 0.08 and 0.13 at 625 nm, as tested with a UV-vis spectrophotometer (Shimadzu, Japan), thus corresponding to 0.5 McFarland scale (1–2 × 10^8 CFU/mL), as recommended by the Clinical Laboratory Standards Institute CLSI [75]. Once standardized, the obtained bacterial suspension was used to prepare the bacterial inoculum used in the execution of MIC determination protocols.
(§2) In accordance with the standards recommended by CLSI [75], the antibacterial potential of the peptides was evaluated with the method of determining the MIC, i.e., the broth microdilution method. Using a 96-well microdilution plate (KASVI, Parnaíba, Brazil), the antibacterial effect was analyzed against the bacterial strains. Therefore, 5 μL of each peptide was added to the first line of the microtiter wells containing 195 μL Mueller-Hinton (M-H) broth (Life Technologies, New York, NY, USA), followed by two-fold serial dilutions with final concentrations ranging from 25 µg/mL to 0.19 µg/mL for all peptides. The volume of the bacterial inoculum was equal to 50 µL, which was added to the test wells with the M-H broth at the beginning of the experiment to give a final concentration of 5 × 10^5 CFU/mL and to reach a final volume of 100 μL in each well after discarding the last additional volume of 100 μL following the serial dilution. MIC was defined as the lowest concentration of an antibacterial agent expressed in μg/mL, which, under strictly controlled in vitro conditions, completely prevents visible bacterial growth after incubation for 24 h at 37 °C in aerobic conditions. […] All tests were performed in triplicate. In order to guarantee the quality and safety of the protocols of this study, the manipulation of bacterial strains was performed under aseptic conditions.

[2] = test system: A. baumannii clinical specimen MDR; assay: microbe, parasite or virus in culture; details: for A. baumannii MBC: 10 μL of wells at or above MIC seeded onto Mueller-Hinton agar, clinical MDR isolate, triplicate
Protocol: After determining the MIC, the MBC was assessed against A. baumannii MDR. Meropenem was used as an antibacterial control drug. The loaded solvent saline served as a negative control. […] Meropenem targets Gram-positive and Gram-negative bacteria, as well as anaerobic bacteria. Similar to other carbapenems, meropenem disrupts the synthesis of bacterial cell walls, inhibiting growth and leading to cell death.
as §1, §2

HEp-2 cells [3] = assay: MTT cytotoxicity assay on HEp-2 cells; assay type: cell-based, human; details: peptide concentration causing 50% cytotoxicity, 72 h treatment, 1.5-100 μg/mL, triplicate at three different times
Protocol: It was obtained from the American Type Culture Collection (ATCC, Manassas, VA, USA). Cells were routinely maintained in a humidified atmosphere of 5% CO2 at 37 °C. The Culture Medium Dulbecco’s Modified Eagle Medium (DMEM) (Biofaster, Tunis, Tunisia) was supplemented with 1% L-glutamine, 1% penicillin/streptomycin and 10% (v/v) heat inactivated fetal bovine serum (FBS)(Biofaster, Tunis, Tunisia).
The cytotoxicity test consisted of measuring the viability of cells in culture when they came into contact with the peptides being tested. Cytotoxicity was determined using the 3-(4,5-dimethylthiazol-2-yl)-2,5-diphenyl tetrazolium bromide (MTT) colorimetric assay on cultured cells (HEp-2 lines). […] After 72 h of incubation, the supernatant was collected and the viability of the cells treated with the peptides was determined by the MTT method. […] After 4 h of incubation at 37 °C, the optical density (OD) was measured at 570 nm using an ELISA reader (Multiskan EX, Labsystems, Paris, France), after adding 100 μL of DMSO to dissolve the crystals of formazan. The results were expressed as a percentage of viability relative to the negative control without a peptide, according to the formula: (Viability percentage = (DO544 nm peptide/DO544 nm control) × 100). […]

A. baumannii MDR = assay: AFM average surface roughness of treated bacteria; assay type: cell-based, Acinetobacter baumannii; details: AFM tapping mode, bacteria from MIC assay wells after 24 h, n = 10 areas of 0.3 × 0.3 µm; non-treated bacteria 25.77 nm
Description: In order to understand how our cationic peptide eliminates bacteria, we must consider its effect on the outer membrane found in Gram-negative bacteria. Here, we use atomic force microscopy (AFM) to directly investigate K4S4(1-16) interactions with the outer membrane of A. baumannii and characterize the biophysical consequences of K4S4(1-16) treatment. However, Gram-negative bacteria are complex organisms, with two membranes and molecular machinery dedicated to maintaining membrane stability. The images show the morphology of a clinical strain of A. baumannii before and after treatment with the derivative. […] The cell differed considerably from the cocci-bacilli-shaped cell observed without peptide treatment. Therefore, this cationic peptide appears to have a highly disruptive effect. […]
With the objective of observing possible morphological alterations caused by the action of an active peptide from the DRS families, bacterial growth control and bacteria treated with K4S4 (1-16) were evaluated using Atomic Force Microscopy (AFM). […]
Statistical analyses were performed with the GraphPad Prism 9.0 software (GraphPad Software Inc.) for cell viability assays. The difference between the average roughness (Ra) was statistically analyzed using t Test in the GraphPad Prism 8.0 software. […]

HEp-2 cells [4] = details: cited from earlier work
Protocol: (§3) Cells were exposed to increasing concentrations of peptides, ranging from 1.5 to 100 μg/mL. The cytotoxicity of DRSs was concentration dependent, and peptide 50% cytotoxic concentration (CC50) values were determined (Table 2).

[5] = cited from earlier work
[6] = cited from earlier work; remark: listed apart in the source
Protocol: as §3

[7] = test system: multi-drug resistant Salmonella Enteritidis; details: cited from earlier work

C[C@@H](O)[C@H]1C(=O)N2C(C(=O)O)=C(S[C@@H]3CN[C@H](C(=O)N(C)C)C3)[C@H](C)[C@H]12 [meropenem]
MIC ([1]; Acinetobacter baumannii, 24 h, read-out: A. baumannii MIC): 32 µg/mL (≈ 83.4 µM) | MBC ([2]; Acinetobacter baumannii, read-out: A. baumannii MBC): 64 µg/mL (≈ 167 µM)

ALWKTLLKKVLKAAAK [K4S4(1-16)]
CC50 Hep-2 Cells (HEp-2 cells [3]): 68.9 µg/mL | A. baumannii MIC [1]: 6.25 µg/mL | A. baumannii MBC [2]: 12.5 µg/mL | roughness on the cell surface after treatment (A. baumannii MDR): 43.41 nm

ALWKTLLKKVLKAAAKAALKAVLVGANA [K4K20S4]
A. baumannii MIC [1]: 3.125 µg/mL | A. baumannii MBC [2]: 6.25 µg/mL

ALWMTLLKKVLKAAAKAALNAVLVGANA-OH [S4]
A. baumannii MIC [1]: 12.5 µg/mL | A. baumannii MBC [2]: 25 µg/mL | maximal non-cytotoxic concentration (HEp-2 cells [4]): 16 µg/mL | hemolytic effect [5]: potent hemolytic effect

GLKKKIKEVGKEAAKAAAKAAGKAALGAVSEAV [K3K4B2]
A. baumannii MIC [1]: 6.25 µg/mL | A. baumannii MBC [2]: 12.5 µg/mL

GLWSKIKEVGKEAAKAAAKAAGKAALGAVSEAV-OH [B2]
A. baumannii MIC [1]: 12.5 µg/mL | A. baumannii MBC [2]: 25 µg/mL

lactoferricin (17–30): other AMP from the literature (CLAAPRKNVRWCTI; ends and bridges not checked; cysteine pairing not given here; UniProt P24627 17-30, looked up, fragment)
cytotoxicity at lower concentrations ([6]; 1X and 2X MIC): negligible cytotoxicity | cytotoxicity at 4X MIC ([6]; 4X MIC): slightly higher cytotoxicity | MIC [7]: 128 µg/mL
